Source: patent US12624015B2, “JNK inhibitors as anticancer agents” (University of Iowa Research Foundation, priority 2019, dated 2026)
pIC50: −log10 of the molar value. Where two headings read alike, the source gives them in different places.

System: A549 adenocarcinoma cell line
Assay: In vitro antitumor screening, MTS assay
Format: cell-based
Conditions: Homo sapiens
Procedure: The synthesized derivatives were tested for their antitumor activity adopting MTS assay against A549 adenocarcinoma cell line following the reported assay method In Riss et al. Results are shown in Table 2.

[1] = A549 cell line, read-out: IC50, MTS assay against A549 cell line
[2] = A549 adenocarcinoma cell line, Table 2, read-out: IC50

pIC50 [1]	pIC50 [2]	Structure (SMILES)
5.12	–	N#Cc1c(NC(=O)c2cccc(Br)c2)sc2c1CCCC2 [Compound 4]
5.57	5.57	N#Cc1c(NCc2ccc(Br)cc2)sc2c1CCCC2 [Compound 10]
5.80	5.80	N#Cc1c(NC(=O)NCc2ccccc2)sc2c1CCCC2 [Compound 11]
